Where no end group is shown, it is not given here.
Tests used:
[1] = system: penicillin-resistant pneumococci; assay: broth microdilution MIC, penicillin-resistant pneumococci; type: cell-based, Streptococcus pneumoniae; conditions: 20 isolates; for ER (effective range of MIC): 5×10^5 cfu/ml
Excerpt: (§1) The antimicrobial peptides are thereafter tested using broth microdilution assay 5×10^5 cfu/ml against a total of 60 pneumococcal isolates (20 isolates for each penicillin-susceptible, penicilin-intermediate, and penicilin-resistant pneumococci) to determine their minimum inhibitory concentration (MIC).
(§2) The minimum inhibitory concentration of the antimicrobial peptide for Pro-His-Trp-Trp-Lys-Trp-Ala-Trp-Trp-His-His-Arg-Arg (SEQ ID NO:1), Lys-His-Trp-Trp-Lys-His-Asp-Trp-Trp-Arg-Trp-Arg-Arg (SEQ ID NO:2), and Ile-Leu-Trp-Trp-Leu-Leu-Ala-Trp-Trp-Arg-Trp-Pro-His (SEQ ID NO:3) are presented in Table 1. An effective range (ER) is defined as the range of the minimum inhibitory concentration to which the antimicrobial peptide produces detectable activity against the bacterial pathogens, whereas an effective percentage (EP) is the percentage of isolates inhibited with the effective range. From the Table 1, the SEQ ID NO:1 inhibited 95% penicillin-resistant pneumococci at the effective range of 62.5 to 250 μg/ml, 85% penicilin-intermediate pneumococci was inhibited at the effective range of 62.5 to 250 μg/ml, and 80% penicilin-susceptible pneumococci was inhibited at the effective range of 125 to 250 μg/ml. The SEQ ID NO:2 inhibited 100% of penicillin-resistant pneumococci at the effective range of 62.5 to 250 μg/ml, 95% penicilin-intermediate pneumococci was inhibited at the effective range of 125 to 250 μg/ml, and 95% penicilin-susceptible pneumococci was inhibited at the effective range of 62.5 to 250 μg/ml. […] However, the antipneumococcal activity is not detected for SEQ ID NO:3 up to the maximum concentration (250 μg/ml) tested.

[2] = system: penicilin-intermediate pneumococci; assay: broth microdilution MIC, penicilin-intermediate pneumococci; type: cell-based, Streptococcus pneumoniae; conditions: 20 isolates; for ER (effective range of MIC): 5×10^5 cfu/ml
Excerpt: as §1, §2

[3] = system: Pseudomonas aeruginosa; assay: antimicrobial activity against bacterial pathogens; type: cell-based; conditions: Gram-negative
[4] = system: Citrobacter spp.; assay: antimicrobial activity against bacterial pathogens; type: cell-based; conditions: Gram-negative
[5] = system: Escherichia coli; assay: antimicrobial activity against bacterial pathogens; type: cell-based; conditions: Gram-negative
Method: as §1
(§3) In a preferred embodiment, the SEQ ID NO:1 is weakly effective against Acinetobacter baumannii at 125 μg/ml only. The SEQ ID NO:2 has broader spectrum which effective against Acinetobacter baumannii, Staphylococcus aureus, methicillin-resistant Staphylococcus aureus, Escherichia coli, Enterococcus cloacae at 125 μg/ml respectively.

[6] = system: Staphylococcus aureus; assay: antimicrobial activity against bacterial pathogens; type: cell-based; conditions: Gram-positive
Method: as §1, §3

[7] = system: methicillin-resistant Staphylococcus aureus; assay: antimicrobial activity against bacterial pathogens; type: cell-based; conditions: Gram-positive
Method: as §1, §3

[8] = system: Acinetobacter baumannii; assay: antimicrobial activity against bacterial pathogens; type: cell-based; conditions: Gram-negative
Method: as §1, §3

[9] = system: Streptococcus pneumoniae; assay: broth microdilution MIC, all 60 pneumococcal isolates; type: cell-based; conditions: for Overall EP: all 60 pneumococcal isolates irrespective of penicillin susceptibility; for overall effective percentage relative to the indolicidin class of antimicrobial peptide: higher than indolicidin, irrespective of penicillin susceptibility
Excerpt: as §1, §2

[10] = antimicrobial activity against bacterial pathogens; type: cell-based, Enterococcus cloacae; conditions: Gram-negative
Method: as §1, §3

[11] = system: K. pneumoniae; assay: antimicrobial activity against bacterial pathogens; type: cell-based; conditions: Gram-negative
[12] = system: penicilin-susceptible pneumococci; assay: broth microdilution MIC, penicilin-susceptible pneumococci; type: cell-based, Streptococcus pneumoniae; conditions: 20 isolates; for ER (effective range of MIC): 5×10^5 cfu/ml
Excerpt: as §1, §2

| Sequence | EP (effective percentage, isolates inhibited within ER) [1] | ER (effective range of MIC) [1] | EP (effective percentage, isolates inhibited within ER) [2] | ER (effective range of MIC) [2] | antimicrobial activity (inhibitory concentration) against P. aeruginosa [3] | antimicrobial activity (inhibitory concentration) against Citrobacter spp. [4] | antimicrobial activity (inhibitory concentration) against E. coli [5] | antimicrobial activity (inhibitory concentration) against S. aureus [6] | antimicrobial activity (inhibitory concentration) against methicillin-resistant S. aureus [7] | antimicrobial activity (inhibitory concentration) against A. baumannii [8] | Overall EP [9] | antimicrobial activity (inhibitory concentration) against E. cloacae [10] | antimicrobial activity (inhibitory concentration) against K. pneumoniae [11] | EP (effective percentage, isolates inhibited within ER) [12] | ER (effective range of MIC) [12] | antipneumococcal activity ([9]; up to the maximum concentration (250 μg/ml) tested) | overall effective percentage relative to the indolicidin class of antimicrobial peptide [9] |
| --- | --- | --- | --- | --- | --- | --- | --- | --- | --- | --- | --- | --- | --- | --- | --- | --- | --- |
| ILWWKWAWWRWRR [reference compound] | 45% | 62.5 to 250 µg/mL | 30% | 125 to 250 µg/mL | >250 µg/mL | 62.5 µg/mL | 250 µg/mL | 62.5 µg/mL | 31.25 µg/mL | 125 µg/mL | 46.7% | 125 µg/mL | >250 µg/mL | 65% | 31.25 to 250 µg/mL |  |  |
| ILWWLLAWWRWPH [SEQ ID NO:3] | 0% | >250 µg/mL | 0% | >250 µg/mL | >250 µg/mL | >250 µg/mL | >250 µg/mL | 7.81 µg/mL | >250 µg/mL | >250 µg/mL | 0% | >250 µg/mL | >250 µg/mL | 0% | >250 µg/mL | not detected |  |
| KHWWKHDWWRWRR [SEQ ID NO:2] | 100% | 62.5 to 250 µg/mL | 95% | 125 to 250 µg/mL | 62.5 µg/mL | 31.25 µg/mL | 125 µg/mL | 125 µg/mL | 125 µg/mL | 125 µg/mL | 96.7% | 125 µg/mL | >250 µg/mL | 95% | 62.5 to 250 µg/mL |  | approximately two fold |
| PHWWKWAWWHHRR [SEQ ID NO:1] | 95% | 62.5 to 250 µg/mL | 85% | 62.5 to 250 µg/mL | >250 µg/mL | >250 µg/mL | >250 µg/mL | >250 µg/mL | >250 µg/mL | 125 µg/mL | 86.7% | >250 µg/mL | >250 µg/mL | 80% | 125 to 250 µg/mL |  | approximately two fold |

— patent US8741851B2, “Peptides having antimicrobial activity” (Universiti Malaya, priority 2012, dated 2014)
